PubChem BioAssay (NCI)
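Results reflect a 48-hour exposure of cells in 96-well plates to compound at five concentrations. Here, GI50 denotes the concentration required for 50% inhibition of growth. TGI is the concentration that stops growth completely.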 *1 amine or outer side, *2 acyl side, *3 side chain or, on linkers, in order; H or OH if unused. Where a SMILES comes first, the peptide text is derived from it. Bridges are numbered along the chain shown (N, C = ends). [ ]: non-standard residue; d: D form. The star is where a group is joined. ξ: configuration not given here. γ4hArg(2R,3R-(OH)2) = N=C(N)NCCC[C@H](N[*:1])[C@@H](O)[C@@H](O)C(=O)[*:2]; Gln(3S,4R-Me2) = C[C@H]([C@H](N)C(=O)O)[C@@H](C)C(N)=O; X43 = CC(C)C[C@H](C)[C@@H](O)[C@@H](C)C(=O)*; X44 = COC(c1ccc(O)cc1)C(N[*:1])C(=O)[*:2]; NMeQ = CN[C@@H](CCC(N)=O)C(=O)O; Thr(3ξ) = CC(O)[C@H](N)C(=O)O; NMeA = CN[C@@H](C)C(=O)O

Columns and labels:
Experiment in all cases: inhibition of tumour cell growth, NCI panel, 48 h
[1] = system: T-47D breast
[2] = system: RXF 393 renal
[3] = system: EKVX NSCLC
[4] = system: OVCAR-3 ovarian
[5] = system: HT29 colon
[6] = system: OVCAR-5 ovarian
[7] = system: COLO 205 colon
[8] = system: SK-OV-3 ovarian
[9] = system: K-562 leukemia
[10] = system: SF-539 CNS
[11] = system: ACHN renal
[12] = system: NCI-H226 lung
[13] = system: HOP-92 NSCLC
[14] = system: MDA-MB-435
[15] = system: KM12 colon
[16] = system: SK-MEL-2 melanoma
[17] = system: HS 578T breast
[18] = system: 786-0 renal
[19] = system: SN12C renal
[20] = system: NCI-H460 lung
[21] = system: UACC-62 melanoma
[22] = system: DU-145 prostate
[23] = system: MCF7 breast
[24] = system: HL-60(TB) leukemia
[25] = system: RPMI-8226 leukemia
[26] = system: PC-3 prostate
[27] = system: SNB-19 CNS
[28] = system: CAKI-1 renal
[29] = system: OVCAR-8 ovarian
[30] = system: HCT-116 colon
[31] = system: SR leukemia
[32] = system: TK-10 renal
[33] = system: LOX IMVI melanoma
[34] = system: NCI-H23 lung
[35] = system: SNB-75 CNS
[36] = system: HOP-62 NSCLC
[37] = system: IGROV1 ovarian
[38] = system: NCI/ADR-RES ovarian
[39] = system: SW-620 colon
[40] = system: UO-31 renal
[41] = system: U251 CNS
[42] = system: OVCAR-4 ovarian
[43] = system: HCC-2998 colon
[44] = system: UACC-257 melanoma
[45] = system: CCRF-CEM leukemia
[46] = system: A549 NSCLC
[47] = system: SF-268 CNS
[48] = system: SK-MEL-5 melanoma
[49] = system: MDA-MB-231 breast
[50] = system: HCT-15 colon
[51] = system: NCI-H522 lung
[52] = system: M14 melanoma
[53] = system: SF-295 CNS
[54] = system: BT-549 breast
[55] = system: SK-MEL-28 melanoma
[56] = system: MOLT-4 leukemia
[57] = system: MALME-3M melanoma
[58] = system: A498 renal

Compound: Cc1c(C(=O)Nc2ccccc2)sc2ncn(Cc3cccc(Cl)c3)c(=O)c12
- GI50 [1]: 42.9 µM
- TGI [1]: > 100 µM
- GI50 [2]: 24.8 µM
- TGI [2]: 71.4 µM
- GI50 [3]: 30.2 µM
- TGI [3]: > 100 µM
- GI50 [4]: 41 µM
- TGI [4]: > 100 µM
- GI50 [5]: 78.4 µM
- TGI [5]: > 100 µM
- GI50 [6]: 27 µM
- TGI [6]: 94.5 µM
- GI50 [7]: > 100 µM
- TGI [7]: > 100 µM
- GI50 [8]: > 100 µM
- TGI [8]: > 100 µM
- GI50 [9]: 4.87 µM
- TGI [9]: > 100 µM
- GI50 [10]: 22.4 µM
- TGI [10]: > 100 µM
- GI50 [11]: 30.2 µM
- TGI [11]: > 100 µM
- GI50 [12]: 10.6 µM
- TGI [12]: 41.6 µM
- GI50 [13]: 16.5 µM
- TGI [13]: 40.5 µM
- GI50 [14]: 24.2 µM
- TGI [14]: > 100 µM
- GI50 [15]: 99 µM
- TGI [15]: > 100 µM
- GI50 [16]: 49.2 µM
- TGI [16]: > 100 µM
- GI50 [17]: 42.6 µM
- TGI [17]: > 100 µM
- GI50 [18]: 29.6 µM
- TGI [18]: > 100 µM
- GI50 [19]: 20 µM
- TGI [19]: 85.1 µM
- GI50 [20]: > 100 µM
- TGI [20]: > 100 µM
- GI50 [21]: 18.8 µM
- TGI [21]: > 100 µM
- GI50 [22]: 34.9 µM
- TGI [22]: > 100 µM
- GI50 [23]: 10.6 µM
- TGI [23]: > 100 µM
- GI50 [24]: 16.3 µM
- TGI [24]: > 100 µM
- GI50 [25]: 10.4 µM
- TGI [25]: > 100 µM
- GI50 [26]: 16.5 µM
- TGI [26]: 49.6 µM
- GI50 [27]: 30.1 µM
- TGI [27]: > 100 µM
- GI50 [28]: 15.4 µM
- TGI [28]: 84.5 µM
- GI50 [29]: 28.7 µM
- TGI [29]: 89.1 µM
- GI50 [30]: 19.2 µM
- TGI [30]: > 100 µM
- GI50 [31]: 14.8 µM
- TGI [31]: 53 µM
- GI50 [32]: 11.7 µM
- TGI [32]: > 100 µM
- GI50 [33]: 57.3 µM
- TGI [33]: > 100 µM
- GI50 [34]: 6.5 µM
- TGI [34]: > 100 µM
- GI50 [35]: 33.3 µM
- TGI [35]: > 100 µM
- GI50 [36]: 18.3 µM
- TGI [36]: 45.8 µM
- GI50 [37]: 15.6 µM
- TGI [37]: > 100 µM
- GI50 [38]: 25.7 µM
- TGI [38]: > 100 µM
- GI50 [39]: 53.3 µM
- TGI [39]: > 100 µM
- GI50 [40]: 13 µM
- TGI [40]: 39.7 µM
- GI50 [41]: 34 µM
- TGI [41]: > 100 µM
- GI50 [42]: 27.8 µM
- TGI [42]: > 100 µM
- GI50 [43]: 4.67 µM
- TGI [43]: 67.8 µM
- GI50 [44]: 34.4 µM
- TGI [44]: > 100 µM
- GI50 [45]: 22.1 µM
- TGI [45]: 97.3 µM
- GI50 [46]: 29.6 µM
- TGI [46]: 93.1 µM
- GI50 [47]: 73.2 µM
- TGI [47]: > 100 µM
- GI50 [48]: 25.7 µM
- TGI [48]: > 100 µM
- GI50 [49]: 12.1 µM
- TGI [49]: 38.2 µM
- GI50 [50]: 13.2 µM
- TGI [50]: > 100 µM
- GI50 [51]: 19 µM
- TGI [51]: > 100 µM
- GI50 [52]: 43.6 µM
- TGI [52]: > 100 µM
- GI50 [53]: 32.4 µM
- TGI [53]: > 100 µM
- GI50 [54]: 11.3 µM
- TGI [54]: 27.6 µM
- GI50 [55]: > 100 µM
- TGI [55]: > 100 µM
- GI50 [56]: 51.8 µM
- TGI [56]: > 100 µM

Compound: COC(c1ccc(O)cc1)C1NC(=O)[C@H](CCC(N)=O)N(C)C(=O)[C@H](CC(C)C)NC(=O)[C@@H](CCCN=C(N)N)NC(=O)[C@H](C(C)O)NC(=O)[C@@H](NC(=O)[C@@H](NC(=O)[C@H](O)[C@H](O)[C@H](CCCN=C(N)N)NC(=O)[C@H](C)NC(=O)[C@H](C)[C@H](O)[C@@H](C)CC(C)C)[C@@H](C)[C@@H](C)C(N)=O)[C@@H](C)OC(=O)[C@H](C)N(C)C1=O (stereo partly drawn) (X43-A[γ4hArg(2R,3R-(OH)2)][Gln(3S,4R-Me2)]T[Thr(3ξ)][dR]L[NMeQ][X44][NMeA]; ester 4-C)
- TGI [12]: 0.912 µM
- TGI [13]: 0.614 µM
- TGI [34]: 0.201 µM
- TGI [44]: 0.308 µM
- TGI [54]: 0.737 µM

Compound: O=C(N/N=C/C=C/c1ccc([N+](=O)[O-])o1)c1cc2ccccc2cc1O
- GI50 [1]: 1.44 µM
- TGI [1]: 3.68 µM
- GI50 [2]: 0.412 µM
- TGI [2]: 1.77 µM
- GI50 [3]: 2.64 µM
- TGI [3]: 9.48 µM
- GI50 [4]: 0.562 µM
- TGI [4]: 5.83 µM
- GI50 [5]: 2.15 µM
- TGI [5]: 7.05 µM
- GI50 [6]: 3.35 µM
- TGI [6]: 10.7 µM
- GI50 [7]: 1.84 µM
- TGI [7]: 3.35 µM
- GI50 [8]: 3.36 µM
- TGI [8]: 38.5 µM
- GI50 [9]: 0.632 µM
- TGI [9]: 9.53 µM
- GI50 [10]: 2.44 µM
- TGI [10]: 10.2 µM
- GI50 [11]: 1.26 µM
- TGI [11]: 9.39 µM
- GI50 [12]: 1.64 µM
- TGI [12]: 4.78 µM
- GI50 [13]: 2.08 µM
- TGI [13]: 5.52 µM
- GI50 [14]: 0.506 µM
- TGI [14]: 2.38 µM
- GI50 [15]: 1.42 µM
- TGI [15]: 2.85 µM
- GI50 [17]: 3.6 µM
- TGI [17]: > 100 µM
- GI50 [57]: 1.5 µM
- TGI [57]: 3.4 µM
- GI50 [19]: 2.02 µM
- TGI [19]: 18.9 µM
- GI50 [20]: 1.64 µM
- TGI [20]: 6.9 µM
- GI50 [21]: 1.03 µM
- TGI [21]: 2.77 µM
- GI50 [22]: 2.26 µM
- TGI [22]: 8.67 µM
- GI50 [23]: 0.711 µM
- TGI [23]: 3.54 µM
- GI50 [24]: 1.43 µM
- TGI [24]: 11.3 µM
- GI50 [25]: 1.53 µM
- TGI [25]: 6.83 µM
- GI50 [26]: 2.02 µM
- TGI [26]: 9.97 µM
- GI50 [27]: 3.2 µM
- TGI [27]: 24.4 µM
- GI50 [28]: 0.933 µM
- TGI [28]: 5.02 µM
- GI50 [29]: 1.45 µM
- TGI [29]: 21.7 µM
- GI50 [30]: 0.326 µM
- TGI [30]: 1.4 µM
- GI50 [31]: 0.308 µM
- TGI [31]: 7.69 µM
- GI50 [32]: 2.44 µM
- TGI [32]: 8.13 µM
- GI50 [33]: 0.356 µM
- TGI [33]: 1.58 µM
- GI50 [34]: 1.02 µM
- TGI [34]: 2.75 µM
- GI50 [35]: 1.97 µM
- TGI [35]: 6.12 µM
- GI50 [36]: 3.27 µM
- TGI [36]: 10.6 µM
- GI50 [37]: 0.981 µM
- TGI [37]: 3.73 µM
- GI50 [38]: 1.36 µM
- TGI [38]: 7.27 µM
- GI50 [39]: 1.05 µM
- TGI [39]: 3.05 µM
- GI50 [40]: 1.05 µM
- TGI [40]: 4.06 µM
- GI50 [41]: 1.42 µM
- TGI [41]: 4.16 µM
- GI50 [42]: 1.06 µM
- TGI [42]: 2.77 µM
- GI50 [43]: 1.31 µM
- TGI [43]: 2.59 µM
- GI50 [44]: 1.38 µM
- TGI [44]: 4.21 µM
- GI50 [46]: 2.75 µM
- TGI [46]: 12.2 µM
- GI50 [47]: 1.43 µM
- TGI [47]: 7.43 µM
- GI50 [48]: 0.349 µM
- TGI [48]: 1.48 µM
- GI50 [49]: 2.17 µM
- TGI [49]: 8.65 µM
- GI50 [50]: 0.465 µM
- TGI [50]: 4.23 µM
- GI50 [51]: 0.486 µM
- TGI [51]: 2.72 µM
- GI50 [52]: 0.758 µM
- TGI [52]: 2.15 µM
- GI50 [53]: 3.37 µM
- TGI [53]: 21.2 µM
- GI50 [54]: 1.3 µM
- TGI [54]: 3.02 µM
- GI50 [55]: 0.697 µM
- TGI [55]: 2.4 µM
- GI50 [58]: 2.48 µM
- TGI [58]: 8.95 µM
- GI50 [56]: 1.18 µM
- TGI [56]: 7.3 µM
